Results reported in patent US9309224B2 (Deciphera Pharmaceuticals, LLC, priority 2013, dated 2016).

Tests used:
osteoclast precursors = test: Osteoclast tartrate-resistant acid phosphatase assay; assay type: cell-based; details: Osteoclast; 7-14 days, RANKL and M-CSF
[1] = molecular target: T1, unphosphorylated PDGFRβ kinase (uPDGFRβ, Seq. ID No. 3) (Homo sapiens, UniProt P09619); test: Unphosphorylated PDGFRβ kinase assay (pyruvate kinase/lactate dehydrogenase coupled); assay type: biochemical; details: ATP 500 μM
T1 construct: purchased DeCode
T1 sequence (P09619 557-1105): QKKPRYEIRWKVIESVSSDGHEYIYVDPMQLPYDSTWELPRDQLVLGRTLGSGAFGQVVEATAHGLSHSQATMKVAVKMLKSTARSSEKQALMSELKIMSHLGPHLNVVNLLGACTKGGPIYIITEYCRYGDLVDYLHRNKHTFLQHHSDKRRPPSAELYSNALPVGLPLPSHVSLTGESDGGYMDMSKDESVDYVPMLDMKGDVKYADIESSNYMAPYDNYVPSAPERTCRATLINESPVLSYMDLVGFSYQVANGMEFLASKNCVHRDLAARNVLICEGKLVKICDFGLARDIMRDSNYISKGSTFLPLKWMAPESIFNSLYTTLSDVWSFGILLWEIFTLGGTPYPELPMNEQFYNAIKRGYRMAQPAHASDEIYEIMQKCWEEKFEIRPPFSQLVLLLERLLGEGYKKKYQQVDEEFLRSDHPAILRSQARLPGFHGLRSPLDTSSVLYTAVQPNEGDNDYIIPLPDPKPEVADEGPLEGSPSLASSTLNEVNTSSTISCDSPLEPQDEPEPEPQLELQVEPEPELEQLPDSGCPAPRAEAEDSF
Excerpt: Unphosyhorylated PDGFRβ (uPDGFRβkinase (Seq. ID No. 3) assay

[2] = molecular target: T2, unphosphorylated c-FMS kinase (uFMS, Seq. ID no. 1) (Homo sapiens, UniProt P07333); test: uFMS kinase assay (pyruvate kinase/lactate dehydrogenase coupled); assay type: biochemical; details: ATP 500 μM
T2 construct: purchased Millipore
T2 sequence (P07333 538-972): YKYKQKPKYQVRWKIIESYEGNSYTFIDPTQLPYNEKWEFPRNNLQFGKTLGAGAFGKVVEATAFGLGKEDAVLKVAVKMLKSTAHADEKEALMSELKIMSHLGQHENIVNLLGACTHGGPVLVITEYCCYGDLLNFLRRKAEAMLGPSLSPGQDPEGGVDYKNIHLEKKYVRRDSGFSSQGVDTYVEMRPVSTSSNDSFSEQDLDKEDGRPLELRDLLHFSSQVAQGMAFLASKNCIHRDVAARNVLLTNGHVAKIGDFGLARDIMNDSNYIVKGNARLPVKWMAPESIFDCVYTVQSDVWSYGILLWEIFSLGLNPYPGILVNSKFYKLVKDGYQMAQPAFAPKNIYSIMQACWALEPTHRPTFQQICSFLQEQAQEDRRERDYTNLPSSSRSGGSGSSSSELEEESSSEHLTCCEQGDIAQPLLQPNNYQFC

c-FMS = test: cFOS mRNA production in a c-FMS mouse spleen pharmacodynamic model; assay type: in vivo; details: out to 8 h post 30 mg/kg single oral dose, read-out: inhibition of cFOS mRNA levels
Protocol: Analysis of cFOS mRNA Production in a c-FMS Mouse Spleen Pharmacodynamic Model To examine the in vivo modulation of FMS activity by compounds of formula I, spleen samples from female DBA/1 mice were collected and analyzed for M-CSF stimulated production of cFOS mRNA. Briefly, six to seven week old female Taconic DBA/1BO J Bom Tac mice were treated with a single oral dose (by gavage) of either vehicle or compound. Plasma and spleen samples are collected from four mice at each timepoint 2, 4, 6, 8, 12, 18, and 24 hours after dosing. Fifteen minutes prior to euthanasia, all mice were injected IV with 1 μg (100 μL fixed volume) of M-CSF. M-CSF, Recombinant Mouse Macrophage Colony Stimulating Factor (36.4 kDa homodimer, ≧98% purity) was obtained from Gibco. All procedures carried out in this experiment were conducted in compliance with all the laws, regulations and guidelines of the National Institutes of Health (NIH). cFOS mRNA levels in spleen extracts were determined using a quantitative reverse transcriptase PCR kit from Life Technologies. Plasma levels of FMS inhibitors were determined by mass spectrometer analysis. The degree of FMS inhibition was correlative to the amount of decrease observed in cFOS mRNA levels in the spleen samples of treated animals compared to vehicle.

[3] = molecular target: T3, phospho-FMS in THP-1 cells (Homo sapiens, UniProt P07333); test: Phospho-FMS ELISA assay in THP-1 cells; assay type: cell-based; details: 4 hours compound, M-CSF stimulated; read-out: pFMS inhibition in THP-1 cells
T3 construct: endogenous in cells; host or cells: THP-1 (ATCC TIB-202)
T3 sequence (P07333 20-972): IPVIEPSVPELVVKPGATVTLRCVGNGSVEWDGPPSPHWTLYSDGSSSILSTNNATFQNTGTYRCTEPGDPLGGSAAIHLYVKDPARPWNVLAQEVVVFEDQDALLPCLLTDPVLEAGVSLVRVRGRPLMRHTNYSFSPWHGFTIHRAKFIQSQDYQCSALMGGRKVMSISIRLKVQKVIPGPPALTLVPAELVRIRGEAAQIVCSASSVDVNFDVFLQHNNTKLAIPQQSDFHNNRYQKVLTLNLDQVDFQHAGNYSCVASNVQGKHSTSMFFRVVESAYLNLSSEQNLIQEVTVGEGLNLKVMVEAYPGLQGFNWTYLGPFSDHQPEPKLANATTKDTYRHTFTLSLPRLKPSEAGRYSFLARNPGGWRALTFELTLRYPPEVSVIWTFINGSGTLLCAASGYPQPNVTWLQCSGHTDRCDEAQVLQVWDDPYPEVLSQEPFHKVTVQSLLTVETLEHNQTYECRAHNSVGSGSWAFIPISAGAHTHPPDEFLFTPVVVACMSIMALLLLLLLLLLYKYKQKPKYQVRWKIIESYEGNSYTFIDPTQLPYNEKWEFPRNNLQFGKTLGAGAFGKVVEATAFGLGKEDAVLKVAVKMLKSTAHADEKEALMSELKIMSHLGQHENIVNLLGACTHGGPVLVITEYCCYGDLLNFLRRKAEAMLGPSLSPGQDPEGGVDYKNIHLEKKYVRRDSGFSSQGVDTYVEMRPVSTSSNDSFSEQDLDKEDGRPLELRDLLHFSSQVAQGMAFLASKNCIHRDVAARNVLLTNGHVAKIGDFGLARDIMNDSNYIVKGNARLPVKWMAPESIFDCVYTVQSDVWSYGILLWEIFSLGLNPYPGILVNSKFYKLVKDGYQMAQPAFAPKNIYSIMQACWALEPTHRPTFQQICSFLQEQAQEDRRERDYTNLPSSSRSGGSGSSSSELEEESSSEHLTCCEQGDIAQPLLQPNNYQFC

M-NFS-60 cells = test: M-NFS-60 cell proliferation assay; assay type: cell-based; details: 67 h incubation, resazurin
Protocol: M-NFS-60 Cell Proliferation Assay A serial dilution of test compound was dispensed into a 384-well black clear bottom plate (Corning, Corning, N.Y.). Two thousand five hundred cells were added per well in 50 μL complete growth medium. […] IC50 values were calculated from a series of percent inhibition values determined at a range of inhibitor concentrations using software routines as implemented in the GraphPad Prism software package.

[4] = molecular target: T4, unphosphorylated c-KIT kinase (uKIT, Seq. ID no. 2) (Homo sapiens, UniProt P10721); test: uKit kinase assay (pyruvate kinase/lactate dehydrogenase coupled); assay type: biochemical; details: ATP 2000 μM
T4 construct: uKit with N-terminal GST fusion used for
T4 sequence (P10721 with tags, fused parts or gaps): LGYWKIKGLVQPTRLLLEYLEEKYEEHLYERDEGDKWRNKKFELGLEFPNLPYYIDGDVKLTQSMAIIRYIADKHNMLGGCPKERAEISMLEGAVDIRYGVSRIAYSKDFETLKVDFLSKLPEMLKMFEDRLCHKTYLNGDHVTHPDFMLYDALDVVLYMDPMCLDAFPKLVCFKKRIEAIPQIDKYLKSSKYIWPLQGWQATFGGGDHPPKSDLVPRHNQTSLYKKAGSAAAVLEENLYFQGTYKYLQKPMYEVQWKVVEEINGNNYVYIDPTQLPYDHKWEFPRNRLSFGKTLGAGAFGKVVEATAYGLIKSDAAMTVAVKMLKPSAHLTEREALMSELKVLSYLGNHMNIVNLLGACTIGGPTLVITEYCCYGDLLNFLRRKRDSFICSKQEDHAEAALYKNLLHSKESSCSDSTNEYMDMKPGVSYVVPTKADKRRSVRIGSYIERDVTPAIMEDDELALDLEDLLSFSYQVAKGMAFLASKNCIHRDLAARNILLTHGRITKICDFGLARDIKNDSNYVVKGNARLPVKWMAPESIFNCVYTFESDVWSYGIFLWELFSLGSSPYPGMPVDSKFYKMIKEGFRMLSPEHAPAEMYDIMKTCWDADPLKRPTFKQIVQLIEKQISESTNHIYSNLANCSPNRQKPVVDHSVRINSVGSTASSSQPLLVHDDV
Protocol: In this assay, the oxidation of NADH (thus the decrease at A340 nm) was continuously monitored spectrophometrically. […] The inhibition reaction was started by mixing serial diluted test compound with the above reaction mixture. The absorption at 340 nm was monitored continuously for 4 hours at 30° C. on Synergy 2 plate reader (BioTech).

Row | SMILES | IC50 (osteoclast precursors) [nM] | IC50 [1] [nM] | IC50 [2] [nM] | IC50 [3] [nM] | IC50 [4] [nM] | inhibition in vivo at 30 mg/kg (c-FMS) [%] | IC50 (M-NFS-60 cells) [nM]
1 | CNC(=O)c1cc(Oc2ccc(NC(=O)NC(=O)C(C)(C)C)nc2)ccn1 [Example 34, N-methyl-4-((6-(3-pivaloylureido)pyridin-3-yl)oxy)picolinamide] | 10 to 100 | > 1000 | < 10 | 10 to 100 | > 1000 | ≥ 50 | 10 to 100
2 | Cc1nc(NC(=O)NC(=O)C(C)(C)C)ccc1Oc1ccnc(NC(=O)N(C)C)c1 [Example 62, N-((5-((2-(3,3-dimethylureido)pyridin-4-yl)oxy)-6-methylpyridin-2-yl)carbamoyl)pivalamide] | 10 to 100 | > 1000 | < 10 | < 10 | > 1000 | ≥ 50 | < 10
3 | CN(C)C1CCN(C(=O)Nc2cc(Oc3ccc(NC(=O)NC(=O)C(C)(C)C)nc3)ccn2)CC1 [Example 76, 4-(dimethylamino)-N-(4-((6-(3-pivaloylureido)pyridin-3-yl)oxy)pyridin-2-yl)piperidine-1-carboxamide] | < 10 | 100 to 1000 | < 10 | < 10 | > 1000 | – | 10 to 100
4 | CCC(=O)Nc1cc(Oc2ccc(NC(=O)NC(=O)C(C)(C)OC)nc2)ccn1 [Example 37, 2-methoxy-2-methyl-N-((5-((2-propionamidopyridin-4-yl)oxy)pyridin-2-yl)carbamoyl)propanamide] | 10 to 100 | 100 to 1000 | < 10 | < 10 | > 1000 | – | 10 to 100
5 | CCN1CCN(C(=O)Nc2cc(Oc3ccc(NC(=O)NC(=O)C(C)(C)C)nc3)ccn2)CC1 [Example 80, 4-ethyl-N-(4-((6-(3-pivaloylureido)pyridin-3-yl)oxy)pyridin-2-yl)piperazine-1-carboxamide] | < 10 | 100 to 1000 | < 10 | < 10 | > 1000 | – | 10 to 100
6 | CNC(=O)c1cc(Oc2ccc(NC(=O)NC(=O)C3(C)CCOCC3)nc2)ccn1 [Example 70, N-methyl-4-((6-(3-(4-methyltetrahydro-2H-pyran-4-carbonyl)ureido)pyridin-3-yl)oxy)picolinamide] | 10 to 100 | > 1000 | 100 to 1000 | 10 to 100 | > 1000 | – | 100 to 1000
7 | CNC(=O)c1cc(Oc2ccc(NC(=O)NC(=O)C3(OC)CCCC3)nc2)ccn1 [Example 64, 4-((6-(3-(1-methoxycyclopentanecarbonyl)ureido)pyridin-3-yl)oxy)-N-methylpicolinamide] | 10 to 100 | > 1000 | < 10 | < 10 | 100 to 1000 | – | 10 to 100
8 | COC1(C(=O)NC(=O)Nc2ccc(Oc3ccnc(NC(=O)C4CC4)c3)cn2)CC1 [Example 41, N-((5-((2-(cyclopropanecarboxamido)pyridin-4-yl)oxy)pyridin-2-yl)carbamoyl)-1-methoxycyclopropanecarboxamide] | < 10 | 10 to 100 | < 10 | 10 to 100 | 100 to 1000 | – | 10 to 100
9 | Cc1nc(NC(=O)NC(=O)C(C)(C)C)ccc1Oc1ccnc(NC(=O)N2CCOCC2)c1 [Example 63, N-(4-((2-methyl-6-(3-pivaloylureido)pyridin-3-yl)oxy)pyridin-2-yl)morpholine-4-carboxamide] | < 10 | > 1000 | < 10 | 10 to 100 | > 1000 | – | 10 to 100
10 | CN(C)[C@@H]1CCN(C(=O)Nc2cc(Oc3ccc(NC(=O)NC(=O)C(C)(C)C)nc3)ccn2)C1 [Example 68, (R)-3-(dimethylamino)-N-(4-((6-(3-pivaloylureido)pyridin-3-yl)oxy)pyridin-2-yl)pyrrolidine-1-carboxamide] | < 10 | 10 to 100 | < 10 | < 10 | > 1000 | – | < 10

More lines, main results first:

Row | IC50 (osteoclast precursors) [nM] | IC50 [1] [nM] | IC50 [2] [nM] | IC50 [3] [nM] | IC50 [4] [nM] | SMILES | inhibition in vivo at 30 mg/kg (c-FMS) [%] | IC50 (M-NFS-60 cells) [nM]
11 | < 10 | > 1000 | < 10 | 10 to 100 | > 1000 | CN1CCC(C(=O)Nc2cc(Oc3ccc(NC(=O)NC(=O)C(C)(C)C)nc3)ccn2)CC1 [Example 21, 1-methyl-N-(4-((6-(3-pivaloylureido)pyridin-3-yl)oxy)pyridin-2-yl)piperidine-4-carboxamide] | ≥ 50 | 10 to 100
12 | < 10 | 100 to 1000 | < 10 | < 10 | > 1000 | CN(C)C(=O)Nc1cc(Oc2ccc(NC(=O)NC(=O)C(C)(C)C)nc2)ccn1 [Example 23, N-((5-((2-(3,3-dimethylureido)pyridin-4-yl)oxy)pyridin-2-yl)carbamoyl)pivalamide] | ≥ 50 | < 10
13 | < 10 | 100 to 1000 | < 10 | < 10 | > 1000 | COC(C)(C)C(=O)NC(=O)Nc1ccc(Oc2ccnc(NC(C)=O)c2)cn1 [Example 26, N-((5-((2-acetamidopyridin-4-yl)oxy)pyridin-2-yl)carbamoyl)-2-methoxy-2-methylpropanamide] | ≥ 50 | 10 to 100
14 | < 10 | > 1000 | < 10 | < 10 | > 1000 | CC(=O)Nc1cc(Oc2ccc(NC(=O)NC(=O)C(C)(C)C)nc2)ccn1 [Example 3, N-((5-((2-acetamidopyridin-4-yl)oxy)pyridin-2-yl)carbamoyl)pivalamide] | ≥ 50 | 10 to 100
15 | < 10 | 100 to 1000 | < 10 | < 10 | > 1000 | CC(C)(C)C(=O)NC(=O)Nc1ccc(Oc2ccnc(NC(=O)N3CCNCC3)c2)cn1 [Example 83, N-(4-((6-(3-pivaloylureido)pyridin-3-yl)oxy)pyridin-2-yl)piperazine-1-carboxamide] | ≥ 50 | 10 to 100
16 | < 10 | 10 to 100 | < 10 | < 10 | 100 to 1000 | CC(=O)Nc1cc(Oc2ccc(NC(=O)NC(=O)C3CCCC3)nc2C)ccn1 [Example 8, N-((5-((2-acetamidopyridin-4-yl)oxy)-6-methylpyridin-2-yl)carbamoyl)cyclopentanecarboxamide] | ≥ 50 | < 10
17 | < 10 | 10 to 100 | < 10 | < 10 | 100 to 1000 | CC(=O)Nc1cc(Oc2cnc(NC(=O)NC(=O)C(C)(C)C)cc2C)ccn1 [Example 42, N-((5-((2-acetamidopyridin-4-yl)oxy)-4-methylpyridin-2-yl)carbamoyl)pivalamide] | – | < 10
18 | < 10 | 100 to 1000 | 10 to 100 | < 10 | 100 to 1000 | CCC(=O)Nc1cc(Oc2ccc(NC(=O)NC(=O)C(C)(C)C)nc2)ccn1 [Example 24, N-((5-((2-propionamidopyridin-4-yl)oxy)pyridin-2-yl)carbamoyl)pivalamide] | – | 10 to 100
19 | < 10 | 100 to 1000 | 10 to 100 | 10 to 100 | 100 to 1000 | CC(=O)Nc1cc(Oc2ccc(NC(=O)NC(=O)C3(C)CC3)nc2)ccn1 [Example 19, N-((5-((2-acetamidopyridin-4-yl)oxy)pyridin-2-yl)carbamoyl)-1-methylcyclopropanecarboxamide] | – | 10 to 100
